Laboratory results from ChEMBL document CHEMBL5131461, “Discovery of 4-(phenoxymethyl)-1H-1,2,3-triazole derivatives as novel xanthine oxidase inhibitors” (Bioorg Med Chem Lett, 2022).
Active and inactive are the calls of the source. The calls are words filed in the database; no cut-off is given here.

Target: T1, Xanthine dehydrogenase/oxidase (Bos taurus, UniProt P80457)
Experiment: Inhibition of bovine XO assessed as inhibition of uric acid formation using xanthine as substrate preincubated with enzyme for 10 mins followed by substrate addition and measured for 2 mins by spectrophotometry
Conditions: not given

T1 sequence (P80457 whole entry): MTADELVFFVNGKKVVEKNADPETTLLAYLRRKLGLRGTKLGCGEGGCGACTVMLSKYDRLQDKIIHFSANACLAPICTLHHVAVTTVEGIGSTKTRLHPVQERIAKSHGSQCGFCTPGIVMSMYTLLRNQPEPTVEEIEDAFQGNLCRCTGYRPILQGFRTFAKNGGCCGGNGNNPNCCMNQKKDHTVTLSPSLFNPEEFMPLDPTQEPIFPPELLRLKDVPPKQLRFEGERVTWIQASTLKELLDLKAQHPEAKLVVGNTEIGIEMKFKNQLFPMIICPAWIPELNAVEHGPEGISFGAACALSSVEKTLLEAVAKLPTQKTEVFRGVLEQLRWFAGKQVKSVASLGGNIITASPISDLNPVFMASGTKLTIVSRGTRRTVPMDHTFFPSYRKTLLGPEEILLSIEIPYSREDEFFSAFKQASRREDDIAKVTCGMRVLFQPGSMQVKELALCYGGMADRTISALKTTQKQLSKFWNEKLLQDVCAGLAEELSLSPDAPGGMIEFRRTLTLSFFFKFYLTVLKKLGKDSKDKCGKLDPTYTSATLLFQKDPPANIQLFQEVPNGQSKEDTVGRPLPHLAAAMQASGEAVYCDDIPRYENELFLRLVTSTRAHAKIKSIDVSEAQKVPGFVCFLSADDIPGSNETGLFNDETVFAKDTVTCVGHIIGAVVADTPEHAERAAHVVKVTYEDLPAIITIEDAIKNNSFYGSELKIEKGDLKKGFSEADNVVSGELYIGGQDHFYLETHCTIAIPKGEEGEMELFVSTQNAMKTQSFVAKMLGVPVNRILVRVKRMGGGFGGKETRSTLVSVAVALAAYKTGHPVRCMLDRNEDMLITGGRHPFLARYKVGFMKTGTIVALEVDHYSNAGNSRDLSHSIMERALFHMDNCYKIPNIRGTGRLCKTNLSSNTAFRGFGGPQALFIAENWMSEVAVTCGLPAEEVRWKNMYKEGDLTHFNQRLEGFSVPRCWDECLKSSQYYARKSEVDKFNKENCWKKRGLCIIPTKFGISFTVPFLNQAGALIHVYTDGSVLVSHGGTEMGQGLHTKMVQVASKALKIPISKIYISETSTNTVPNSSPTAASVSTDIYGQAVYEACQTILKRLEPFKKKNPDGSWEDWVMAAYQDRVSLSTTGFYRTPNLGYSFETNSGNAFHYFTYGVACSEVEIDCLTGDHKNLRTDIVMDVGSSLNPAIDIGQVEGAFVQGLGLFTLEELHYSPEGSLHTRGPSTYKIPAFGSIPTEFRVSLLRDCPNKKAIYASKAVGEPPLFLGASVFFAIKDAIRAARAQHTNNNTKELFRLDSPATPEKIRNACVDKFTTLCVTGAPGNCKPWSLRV

SMILES	IC50
CCCn1cc(COc2ccc(F)cc2C=O)nn1	5.24 µM
Cc1ccccc1Cn1cc(COc2ccc(F)cc2C=O)nn1	4.01 µM
CC(C)Cn1cc(COc2ccc(F)cc2C=O)nn1	14.3 µM
COc1cccc(Cn2cc(COc3ccc(F)cc3C=O)nn2)c1	0.7 µM
CCCCCn1cc(COc2ccc(F)cc2C=O)nn1	2.99 µM
CCCCn1cc(COc2cc(F)ccc2C=O)nn1	3.59 µM
COc1ccccc1Cn1cc(COc2ccccc2C=O)nn1	1.45 µM
Cc1ccccc1Cn1cc(COc2ccccc2C=O)nn1	1.63 µM
CCn1cc(COc2ccc(F)cc2C=O)nn1	3.46 µM
CCC(C)n1cc(COc2ccc(F)cc2C=O)nn1 (configuration not stated)	9.36 µM
CCC(C)n1cc(COc2ccccc2C=O)nn1 (configuration not stated)	21.8 µM
COc1cccc(Cn2cc(COc3ccccc3C=O)nn2)c1	1.02 µM
N#Cc1ccccc1Cn1cc(COc2ccccc2C=O)nn1	2.22 µM
CC(C)CCn1cc(COc2ccc(F)cc2C=O)nn1	2.12 µM
O=Cc1ccccc1OCc1cn(Cc2ccccc2)nn1	> 25 µM
N#Cc1cccc(Cn2cc(COc3ccc(F)cc3C=O)nn2)c1	2.54 µM
N#Cc1cccc(Cn2cc(COc3ccccc3C=O)nn2)c1	1.71 µM
Cc1cccc(Cn2cc(COc3ccccc3C=O)nn2)c1	1.11 µM
CCCCCn1cc(COc2ccccc2C=O)nn1	18.1 µM
COc1ccccc1Cn1cc(COc2cc(F)ccc2C=O)nn1	2.07 µM
CC(C)CCn1cc(COc2ccccc2C=O)nn1	16 µM
CC(C)Cn1cc(COc2ccccc2C=O)nn1	21.1 µM
CCCCn1cc(COc2ccc(F)cc2C=O)nn1	2.49 µM
Cc1cccc(Cn2cc(COc3ccc(F)cc3C=O)nn2)c1	1.18 µM
N#Cc1ccccc1Cn1cc(COc2ccc(F)cc2C=O)nn1	4.15 µM
CCCCn1cc(COc2ccccc2C=O)nn1	13.5 µM
CC(C)n1cc(COc2ccc(F)cc2C=O)nn1	2.56 µM
COc1ccccc1Cn1cc(COc2ccc(F)cc2C=O)nn1	0.94 µM

Test system: Rattus norvegicus
Experiment: In vivo Hypouricemic activity against potassium oxonate-induced hyperuricemia rat model assessed as reduction in serum uric acid production at 8 mg/kg, po measured after 2 hrs
Format: functional, organism-based
Conditions: not given

SMILES	Activity
Oc1ncnc2[nH]ncc12	Active

Test system: Rattus norvegicus
Experiment: In vivo Hypouricemic activity against potassium oxonate-induced hyperuricemia rat model assessed as reduction in serum uric acid production at 20 mg/kg, po measured after 2 hrs
Format: functional, organism-based
Conditions: not given

SMILES	Activity
COc1cccc(Cn2cc(COc3ccc(F)cc3C=O)nn2)c1	Active

Test system: Rattus norvegicus
Experiment: In vivo Hypouricemic activity against potassium oxonate-induced hyperuricemia rat model assessed as reduction in AUC of serum uric acid level at 20 mg/kg, po measured after 0.5 to 8 hrs
Format: functional, organism-based
Conditions: time 0.5-8 hrs

SMILES	Activity
COc1cccc(Cn2cc(COc3ccc(F)cc3C=O)nn2)c1	Active

Target: T1, Xanthine dehydrogenase/oxidase
Experiment: Potency index, ratio of allopurinol IC50 to test compound IC50 for bovine XO using xanthine as substrate by spectrophotometry
Conditions: cattle

SMILES	Ratio IC50
COc1cccc(Cn2cc(COc3ccc(F)cc3C=O)nn2)c1	14

Target: T1, Xanthine dehydrogenase/oxidase
Experiment: Inhibition of bovine XO assessed as inhibition of uric acid formation using xanthine as substrate at 25 uM preincubated with enzyme for 10 mins followed by substrate addition and measured for 2 mins by spectrophotometry
Conditions: cattle, time 12 min

SMILES	inhibition at 25 µM
COc1cccc(Cn2cc(COc3ccccc3[N+](=O)[O-])nn2)c1	< 50%
CC(C)CCn1cc(COc2cc(F)ccc2C=O)nn1	< 50%
COc1ccccc1Cn1cc(COc2ccccc2C#N)nn1	< 50%
CC(C)n1cc(COc2ccccc2C=O)nn1	< 50%
COc1cccc(Cn2cc(COc3ccccc3C#N)nn2)c1	< 50%
COc1ccccc1Cn1cc(COc2ccccc2[N+](=O)[O-])nn1	< 50%
O=Cc1ccccc1OCc1cn(Cc2ccccc2)nn1	< 50%
CCn1cc(COc2ccccc2C=O)nn1	< 50%
CCCn1cc(COc2ccccc2C=O)nn1	< 50%
COc1cccc(Cn2cc(COc3cc(F)ccc3C=O)nn2)c1	< 50%
